# Molecular target: T1, mPGES-1 (Homo sapiens, UniProt O14684)
# T1 construct: made in house; host or cells: E. coli (membrane fraction)
# T1 sequence (O14684 1-152): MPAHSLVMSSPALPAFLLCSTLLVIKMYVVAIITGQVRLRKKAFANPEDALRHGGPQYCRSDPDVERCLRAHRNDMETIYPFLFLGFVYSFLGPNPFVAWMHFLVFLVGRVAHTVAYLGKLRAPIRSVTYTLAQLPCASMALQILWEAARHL
# Experiment: mPGES-1 assay: conversion of PGH2 to PGE2, PGE2 analysed by HPLC
# Format: biochemical
# Set-up: dose or concentration left out as unconfirmed
# Procedure: In the assay mPGES-1 catalyses the reaction where the substrate PGH2 is converted to PGE2. mPGES-1 is expressed in E. coli and the membrane fraction is dissolved in 20 mM NaPi-buffer pH 8.0 and stored at −80° C. In the assay mPGES-1 is dissolved in 0.1M KPi-buffer pH 7.35 with 2.5 mM glutathione. The stop solution consists of H2O/MeCN (7/3), containing FeCl2 (25 mM) and HCl (0.15 M). The assay is performed at room temperature in 96-well plates. Analysis of the amount of PGE2 is performed with reversed phase HPLC (Waters 2795 equipped with a 3.9×150 mm C18 column). The mobile phase consists of H2O/MeCN (7/3), containing TFA (0.056%), and absorbance is measured at 195 nm with a Waters 2487 UV-detector.
# The following is added chronologically to each well: • 1. 100 μL mPGES-1 in KPi-buffer with glutathione. Total protein concentration: 0.02 mg/mL. • 2. 1 μL inhibitor in DMSO. Incubation of the plate at room temperature for 25 minutes. • 3. 4 μL of a 0.25 mM PGH2 solution. Incubation of the plate at room temperature for 60 seconds. • 4. 100 μL stop solution. • 180 μL per sample is analyzed with HPLC.
row,inhibition of mPGES-1 [%],SMILES
1,96,"CC(C)(C)c1ccc(-c2ccc3c(-c4ccccc4)c(C(=O)O)n(Cc4cccc(Oc5ccccc5)c4)c3c2)cc1 [Example 1, 6-(4-tert-Butylphenyl)-1-(3-phenoxybenzyl)-3-phenylindole-2-carboxylic acid]"
2,81,"O=C(O)c1c(-c2ccccc2)c2cc(-c3cccnc3)ccc2n1CCCc1ccccc1 [Example 4, 3-Phenyl-1-(3-phenylpropyl)-5-(3-pyridyl)indole-2-carboxylic acid]"
3,85,"O=C(O)c1c(-c2ccccc2)c2cc(-c3ccc4c(c3)OCO4)ccc2n1CCCc1ccccc1 [Example 3, 5-(3,4-Methylenedioxyphenyl)-3-phenyl-1-(3-phenylpropyl)indole-2-carboxylic acid]"

# More lines, now with the values behind:
row,SMILES,inhibition of mPGES-1 [%]
1,"CC(C)(C)c1ccc(-c2ccc3c(-c4cccs4)c(C(=O)O)n(Cc4cccc(Oc5ccccc5)c4)c3c2)cc1 [Example 2, 6-(4-tert-Butylphenyl)-1-(3-phenoxybenzyl)-3-(2-thienyl)indole-2-carboxylic acid]",100
2,"O=C(O)c1cccc(-c2c(C(=O)O)n(Cc3cccc(C(F)(F)F)c3)c3cccc(-c4ccccc4)c23)c1 [Example 6, 3-(3-Carboxyphenyl)-4-phenyl-1-[3-(trifluoromethyl)benzyl]indole-2-carboxylic acid]",100
3,"O=C(O)c1cccc(-c2c(C(=O)O)n(Cc3cccc([N+](=O)[O-])c3)c3cc(-c4ccc(OCc5ccccc5)cc4)ccc23)c1 [Example 5, 6-(4-Benzyloxyphenyl)-3-(3-carboxyphenyl)-1-(3-nitrobenzyl)indole-2-carboxylic acid]",93

# Reference: US20060160879A1, “Indoles useful in the treatment of inflammation” (priority 2003, published 2006)
